Laboratory results: US8815221B2, “Composition used for skin whitening, plant extracted skin whitening composition and composition having a skin whitening effect” (Industrial Technology Research Institute, priority 2009, dated 2014)
Where “and” joins values, the source holds several entries; their conditions need not be identical. Identical values can stand only once.

Experiments:
Tyrosinase (Sigma T3824) = molecular target: T1, Tyrosinase (Sigma T3824) (Agaricus bisporus, UniProt C7FF04); assay: Tyrosinase inhibition test; type: biochemical; settings: L-Dopa substrate; for IC50: read-out: 50% tyrosinase inhibitory concentration (IC50) (converted); for Tyrosinase inhibiting rate (%) (100 μg/ml) / inhibition at 100 µg/mL: concentration of 100 μg/ml; for inhibition at 100 µg/mL: read-out: Tyrosinase inhibiting rate (%) (100 μg/ml); for inhibition at 125 µg/mL: concentration of 125 μg/ml, read-out: Tyrosinase inhibiting rate
T1 construct: purchased Sigma T3824
T1 sequence (C7FF04 1-392 limits assumed): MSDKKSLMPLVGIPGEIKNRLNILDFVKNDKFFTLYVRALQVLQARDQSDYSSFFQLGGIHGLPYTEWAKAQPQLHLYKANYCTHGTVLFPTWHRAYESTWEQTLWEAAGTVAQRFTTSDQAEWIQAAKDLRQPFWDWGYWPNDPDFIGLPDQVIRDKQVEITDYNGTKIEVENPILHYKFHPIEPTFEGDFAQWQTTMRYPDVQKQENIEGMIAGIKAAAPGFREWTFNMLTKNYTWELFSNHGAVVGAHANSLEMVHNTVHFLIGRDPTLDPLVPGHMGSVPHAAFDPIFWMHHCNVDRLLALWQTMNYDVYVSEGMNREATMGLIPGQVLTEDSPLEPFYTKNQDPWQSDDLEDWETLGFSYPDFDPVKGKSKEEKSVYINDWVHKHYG
Protocol: Tyrosinase Inhibition Test
1. A tyrosinase solution using Tyrosinase (Sigma T3824) was prepared, wherein after diluted with a 0.1 M phosphate buffer, a 0.1 U/μl tyrosinase solution was obtained.
2. A L-Dopa solution using L-Dopa (Sigma D9628) was prepared, wherein after diluted with a 0.1 M phosphate buffer, a 1 mM L-Dopa solution was obtained and then was placed a dark environment.
3. A test sample solution was prepared comprising 10 mg/ml of a sample solution diluted with 100% of DMSO. Then the test sample solution was further diluted for require concentrations using a 0.1 M phosphate buffer.
4. 50 μl/well of the prepared test sample solution mentioned above was added into the wells of a 96 well plate (note that the same diluted concentration of DMSO for the test sample solution was also added into the wells of a 96 well plate and used for the blank group) and then 90 μl/well of the prepared 0.1 U/μl tyrosinase solution mentioned above was added thereto (the dC control group was added the 0.1 M phosphate buffer but not the 0.1 U/μl tyrosinase solution). The 96 well plate was placed under a temperature of 37° C. and mixed at 450 rpm for 5 minutes and then placed in an ELISA reader (Molecular Devices M2). The wave length of the ELISA reader was set at 492 nm to determine absorbance values of the solutions in the 96 well plate, wherein two absorbance values were determined and the average value therefrom was used as a background value. Next, 60 μl/well of the prepared 1 mM L-Dopa solution mentioned above was added to the 96 well plate (the dD control group was added the 0.1 M phosphate buffer not the 1 mM L-Dopa solution) and then the 96 well plate was placed under a temperature of 37° C. in a dark environment and mixed at 450 rpm for 15 minutes and then placed in a ELISA reader (Molecular Devices M2). The wave length of the ELISA reader was set at 492 nm to determine absorbance values of the solutions in the 96 well plate, wherein two absorbance values were determined and the average value therefrom was used as a measurement value. After the background value was subtracted from the measurement value, the tyrosinase inhibiting rate of the sample was calculated. The formula for calculating the tyrosinase inhibiting rate of the sample is shown in the following: (A−A0)−(B−B0)−dC−dD/(A−A0)×100% […]
A: absorbance value of the blank group
B: absorbance value of the sample
A0: background value of the blank group
B0: background value of the sample dC: absorbance variation for the sample only reacted with the L-Dopa dD: absorbance variation for the sample only reacted with the tyrosinase

Mouse melanoma B16-F0 = assay: Melanin inhibition test (melanin content analysis); type: cell-based; settings: concentration of 100 μg/ml, B16 cells, 48 hours, read-out: Melanin content inhibiting rate
Protocol: Mouse melanoma B16-F0 (ATCC CRL-6322, bought from Food Industry Research and Development Institute (FIRDI) (331 Shih-Pin Road, Hsinchu, 300 Taiwan R.O.C.)) was cultured in a medium (Dulbecco's MEM, DMEM) containing 10% fetal bovine serum and 1% penicillin-streptomycin under a temperature of 37° C., in a 5% CO2 incubator.
2. Melanin Content Analysis
Inhibition of B16 Cell Melanin by Extracts:
After a test sample was added to the B16 cells in the medium for 48 hours, the medium was removed. The B16 cells were washed twice with the PBS buffer and then 300 μl of a 1N NaOH which was preheated at a temperature of 70° C. was added to the B16 cells and the B16 cells were, placed in a 60° C. incubator for 60 minutes. Next, 200 μl of the 1N NaOH which had been added to the B16 cells mention above was added to a 96 well plate to determined the absorbance value at 405 nm. The formula for calculating the melanin content is shown in the following: Melanin content=(M/M0)×100%
M: absorbance value for B16 cells being treated with sample
M0: absorbance value for B16 cells not being treated with sample

IC50 (Tyrosinase (Sigma T3824))	Tyrosinase inhibiting rate (%) (100 μg/ml) (Tyrosinase (Sigma T3824))	Tyrosinase inhibiting rate (%) (100 μg/ml) (Tyrosinase (Sigma T3824); listed as compound 1)	inhibition at 100 µg/mL (Tyrosinase (Sigma T3824))	inhibition at 125 µg/mL (Tyrosinase (Sigma T3824))	Tyrosinase inhibiting rate (%) (100 μg/ml) (Tyrosinase (Sigma T3824); listed as Structure (III))	SMILES	inhibition at 100 µg/mL (Mouse melanoma B16-F0)
< 63.4 µM and 62 µM	61.2 ± 2.5%	about 61.2±2.5%	~62%	–	–	O=C(/C=C/c1ccc(O)cc1)NCCCCN(CCCNC(=O)/C=C/c1ccc(O)cc1)C(=O)/C=C/c1ccc(O)cc1 [Compound 1]	~19.9%
335 µM	–	–	15 ± 1.7%	29.2 ± 2%	–	COc1cc(/C=C/C(=O)NCCCCN(CCCNC(=O)/C=C/c2ccc(O)c(OC)c2)C(=O)/C=C/c2ccc(O)c(OC)c2)ccc1O [Compound 2]	–
752 µM	–	–	10.4 ± 0.1%	13.2 ± 1.1%	–	O=C(/C=C/c1ccccc1O)NCCCCN(CCCNC(=O)/C=C/c1ccccc1O)C(=O)/C=C/c1ccccc1O [Compound 3]	–
29.4 µM and < 30.1 µM	–	–	62.2 ± 27.2%	74.5 ± 16.1%	about 63%	O=C(/C=C/c1ccc(O)c(O)c1)NCCCCN(CCCNC(=O)/C=C/c1ccc(O)c(O)c1)C(=O)/C=C/c1ccc(O)c(O)c1 [Compound 4]	–
